20 compounds from ChEMBL document CHEMBL4732090, “Preparation of new 1,3-dibenzyl tetrahydropyridinylidene ammonium salts and their antimicrobial and anticellular activities” (Eur J Med Chem, 2021) can be followed below.

For data set [1], the system named is Staphylococcus aureus. The data set can be described thus: Antibacterial activity against Staphylococcus aureus ATCC 29213 assessed as diameter of inhibition zone at 10 mg/ml by disk diffusion assay. It counts as functional. To be noted: read-out: DIZ.
The nature of data set [2]: Selectivity index, ratio of IC50 for rat L6 cells to IC50 for Plasmodium falciparum NF54. It counts as toxicity. Particulars: read-out: Ratio IC50.
The test system of data set [3] is Staphylococcus epidermidis. In words: Antibacterial activity against Staphylococcus epidermis ATCC 12228 assessed as diameter of inhibition zone at 10 mg/ml by disk diffusion assay. In kind it is functional. To be noted: read-out: DIZ.
In data set [4] the test system is Candida albicans. In words: Antifungal activity against Candida albicans ATCC 90028 assessed as diameter of inhibition zone at 10 mg/ml by disk diffusion assay. It counts as functional. Particulars: read-out: DIZ.
The test system of data set [5] is Pseudomonas aeruginosa. In words: Antibacterial activity against Pseudomonas aeruginosa ATCC 27853 assessed as diameter of inhibition zone at 10 mg/ml by disk diffusion assay. In kind it is functional. Particulars: read-out: DIZ.
Data set [6] concerns Escherichia coli. The data set can be described thus: Antibacterial activity against Escherichia coli ATCC 25922 assessed as diameter of inhibition zone at 10 mg/ml by disk diffusion assay. Particulars: read-out: DIZ. In kind it is functional.
Data set [7] relates to Plasmodium falciparum. The data set can be described thus: Antiplasmodial activity against Plasmodium falciparum NF54 erythrocytic stages assessed as reduction in [3H]hypoxanthine incorporation measured after 48 hrs by liquid scintillation counting method. It counts as functional, organism-based.
Data set [8] concerns Trypanosoma brucei rhodesiense. The data set can be described thus: Trypanocidal activity against Trypanosoma brucei rhodesiense STIB900 incubated for 70 hrs by Alamar blue assay. It counts as functional, organism-based. Particulars: STIB900, 70 h.
For data set [9], the system named is L6. In words: Cytotoxicity against rat L6 cells after 70 hrs by Alamar blue assay. It counts as cell-based. Particulars: L6, 70 h.
Data set [10] is described as follows: Selectivity index, ratio of IC50 for rat L6 cells to IC50 for chloroquine and pyrimethamine resistant Plasmodium falciparum K1. It counts as toxicity. To be noted: read-out: Ratio IC50.
A short description of data set [11]: Selectivity index, ratio of IC50 for rat L6 cells to IC50 for Trypanosoma brucei rhodesiense STIB900. To be noted: read-out: Ratio IC50. In kind it is toxicity.
Data set [12] relates to Plasmodium falciparum. The data set can be described thus: Antiplasmodial activity against chloroquine and pyrimethamine resistant Plasmodium falciparum K1 strain. It counts as functional, organism-based.
The test system of data set [13] is HCT-116. The data set can be described thus: Cytotoxicity against human HCT-116 cells assessed as inhibition of cell growth at 50 uM after 72 hrs by XTT assay relative to control. It counts as functional.
Data set [14] concerns U-251. The data set can be described thus: Cytotoxicity against human U-251 cells assessed as inhibition of cell growth at 50 uM after 72 hrs by XTT assay relative to control. It counts as functional.

In the case of `CC1(C)C(Cc2ccc(C#N)cc2)C(=[N+]2CCCC2)C=CN1Cc1ccccc1` (stereo not drawn), the zone of inhibition at 10000 µg/mL in data set [1] turned out to be 14 mm; in [3], 12 mm; in data set [4] it was 0 mm; in data set [5], 5 mm; in data set [6] it was 8 mm. Besides, the results for the selectivity ratio in data set [2], in data set [10] and in [11] were over 12700, over 1790 and over 19.6, respectively. For the same compound, the IC50 in data set [7] was 17 nM; in data set [8], 11000 nM; in data set [9] (read-out: IC50) it was over 215000 nM; in data set [12], 120 nM.
With `CC1(C)C(Cc2ccc([N+](=O)[O-])cc2)C(=[N+]2CCCC2)C=CN1Cc1ccccc1` (racemic), the zone of inhibition at 10000 µg/mL in [1] amounted to 15 mm; in data set [3] it was 18 mm; in [4] it was 0 mm; in data set [5] it was 0 mm; in [6], 11 mm. In addition, the selectivity ratio in data set [2] amounted to 4800; in data set [11], 37.9. Besides, the figures for the 50% inhibitory concentration (IC50) in data set [7], in data set [8] and in [9] (read-out: IC50) were 43 nM, 5450 nM and 206000 nM, respectively.
Consider `CC1(C)C(Cc2ccccc2)C(=[N+]2CCCC2)C=CN1Cc1ccccc1` (racemic), for which the zone of inhibition at 10000 µg/mL stood at 21 mm in data set [1]; 25 mm in [3]; 0 mm in data set [4]; 0 mm in data set [5]; 12 mm in data set [6]. Moreover, the selectivity ratio in data set [2] amounted to 1530; in [10] it was 888; in data set [11] it was 376. Besides, the IC50 was found to be 32 nM in [7], 130 nM in data set [8], 48800 nM in [9] (read-out: IC50) and 55 nM in data set [12].
With `CC1(C)C(Cc2ccc(Br)cc2)C(=[N+]2CCCC2)C=CN1Cc1ccccc1` (racemic), the zone of inhibition at 10000 µg/mL in data set [1] came to 22 mm; in [3], 25 mm; in data set [4] it was 13 mm; in data set [5], 0 mm; in data set [6] it was 11 mm. Moreover, the selectivity ratio turned out to be 4480 in data set [2] and 192 in [11]. The half-maximal inhibitory concentration (IC50) in data set [7] came to 7.7 nM; in data set [8], 180 nM; in data set [9] (read-out: IC50), 34500 nM.
For `CC1(C)C(Cc2ccccc2)C(=[N+]2CCCCC2)C=CN1Cc1ccccc1` (racemic), the zone of inhibition at 10000 µg/mL is 22 mm in data set [1]; 28 mm in data set [3]; 0 mm in data set [4]; 0 mm in [5]; 10 mm in [6]. The selectivity ratio in data set [2] was determined as 1640; in data set [10] it was 1024; in data set [11] it was 558. The IC50 in data set [7] worked out at 15 nM; in data set [8], 44 nM; in [9] (read-out: IC50) it was 24600 nM; in [12], 24 nM.
Take `CC(C)c1ccc(CC2C(=[N+]3CCCC3)C=CN(Cc3ccccc3)C2(C)C)cc1` (racemic): the zone of inhibition at 10000 µg/mL in data set [1] came out at 25 mm; in [3], 29 mm; in [4], 21 mm; in data set [5], 6 mm; in [6], 10 mm. In addition, the inhibition at 50 µM in data set [13] and in data set [14] was 100% each time. Moreover, the selectivity ratio was found to be 64.4 in data set [2] and 59.8 in data set [11]. Besides, the 50% inhibitory concentration (IC50) came to 39 nM in data set [7], 42 nM in [8] and 2510 nM in [9] (read-out: IC50).
`CC1(C)C(Cc2ccccc2C(F)(F)F)C(=[N+]2CCCC2)C=CN1Cc1ccccc1` (racemic): the zone of inhibition at 10000 µg/mL in data set [1] worked out at 23 mm; in data set [3], 22 mm; in [4], 10 mm; in data set [5] it was 0 mm; in data set [6], 13 mm. Besides, the selectivity ratio in [2] was 912; in data set [11], 776. Moreover, the half-inhibitory concentration (IC50) was 85 nM in [7], 100 nM in data set [8] and 77600 nM in [9] (read-out: IC50).
In the case of `CC1(C)C(Cc2ccc(Cl)cc2Cl)C(=[N+]2CCCC2)C=CN1Cc1ccccc1` (racemic), the zone of inhibition at 10000 µg/mL amounted to 22 mm in data set [1]; 26 mm in [3]; 15 mm in data set [4]; 0 mm in data set [5]; 12 mm in [6]. Further, the selectivity ratio in [2] was determined as 1450; in data set [11] it was 237. In addition, the IC50 in data set [7] came to 18 nM; in data set [8], 110 nM; in data set [9] (read-out: IC50) it was 26100 nM.
On to `CC1(C)C(Cc2ccc(C(F)(F)F)cc2)C(=[N+]2CCCC2)C=CN1Cc1ccccc1` (racemic), for which the zone of inhibition at 10000 µg/mL came to 22 mm in data set [1]; 24 mm in [3]; 15 mm in [4]; 0 mm in [5]; 11 mm in [6]. Further, the figures for the selectivity ratio in [2] and in data set [11] were 3300 and 268, respectively. In addition, the half-maximal inhibitory concentration (IC50) in [7] is 26 nM; in data set [8] it was 320 nM; in data set [9] (read-out: IC50) it was 85900 nM.
Take `CC1(C)C(Cc2ccccc2)C(=[N+]2CCCC2)C=CN1Cc1ccc(Cl)cc1` (racemic): the zone of inhibition at 10000 µg/mL in [1] turned out to be 22 mm; in data set [3], 29 mm; in data set [4], 20 mm; in [5] it was 0 mm; in [6], 13 mm. Besides, the selectivity ratio in [2] is 1260; in [11], 316. For the same compound, the IC50 in [7] turned out to be 30 nM; in data set [8], 120 nM; in data set [9] (read-out: IC50), 37900 nM.
Consider `CC1(C)C(Cc2ccc(Cl)cc2)C(=[N+]2CCCC2)C=CN1Cc1ccccc1` (racemic), for which the zone of inhibition at 10000 µg/mL amounted to 24 mm in data set [1]; 21 mm in data set [3]; 11 mm in [4]; 0 mm in data set [5]; 8 mm in [6]. Moreover, the selectivity ratio is 5260 in data set [2] and 179 in data set [11]. Also, the IC50 in data set [7] is 17 nM; in data set [8] it was 500 nM; in data set [9] (read-out: IC50), 89500 nM.
Take `CC1(C)C(Cc2ccccc2)C(=[N+]2CCCC2)C=CN1Cc1ccc([N+](=O)[O-])cc1` (racemic): the zone of inhibition at 10000 µg/mL turned out to be 12 mm in [1]; 14 mm in data set [3]; 0 mm in [4]; 0 mm in data set [5]; 7 mm in data set [6]. The selectivity ratio in data set [2] is 2320; in data set [11], 200. The figures for the IC50 in data set [7], in [8] and in data set [9] (read-out: IC50) were 89 nM, 1030 nM and 206000 nM, respectively.
Regarding `CC1(C)C(Cc2c(Cl)cccc2Cl)C(=[N+]2CCCC2)C=CN1Cc1ccccc1` (racemic), the zone of inhibition at 10000 µg/mL in data set [1] came out at 23 mm; in data set [3] it was 26 mm; in data set [4] it was 10 mm; in data set [5], 7 mm; in data set [6] it was 10 mm. In addition, the selectivity ratio was found to be 483 in data set [2] and 238 in data set [11]. Moreover, the 50% inhibitory concentration (IC50) in [7] was 31 nM; in data set [8] it was 63 nM; in [9] (read-out: IC50), 15000 nM.
In the case of `CC1(C)S[C@@H]2[C@H](NC(=O)[C@H](N)c3ccccc3)C(=O)N2[C@H]1C(=O)O` [AMPICILLIN], the zone of inhibition at 10000 µg/mL in data set [3] is 45 mm; in [4], 0 mm; in [5], 0 mm; in [6] it was 15 mm.
Turning to `C[C@@H]1CC[C@H]2[C@@H](C)C(=O)O[C@@H]3O[C@@]4(C)CC[C@@H]1[C@]32OO4` [ARTEMISININ], the selectivity ratio in [10] was 132000. This compound also gave an IC50 in [12] of 3.4 nM.
As for `CCN(CC)CCCC(C)Nc1ccnc2cc(Cl)ccc12` (stereo not drawn) [CHLOROQUINE], in [9] (read-out: IC50), the IC50 was found to be 117000 nM.
Take `O=C(O)c1cn(C2CC2)c2cc(N3CCNCC3)c(F)cc2c1=O` [CIPROFLOXACIN]: the zone of inhibition at 10000 µg/mL in [1] worked out at 14 mm; in data set [4], 0 mm; in data set [5], 0 mm.
Turning to `Nc1nc(N)nc(Nc2ccc([As]3SCC(CO)S3)cc2)n1` (stereo not drawn) [MELARSOPROL], the selectivity ratio in data set [11] came to 2000.
In turn, `COc1cc([C@@H]2c3cc4c(cc3[C@H](O)[C@H]3COC(=O)[C@H]23)OCO4)cc(OC)c1OC` [PODOFILOX] showed a half-maximal inhibitory concentration (IC50) in data set [9] of 12 nM.
Turning to `COc1cc(Cc2cnc(N)nc2N)cc(OC)c1OC` [TRIMETHOPRIM], the zone of inhibition at 10000 µg/mL in data set [1] turned out to be 22 mm; in data set [4], 0 mm; in data set [5], 0 mm.
